The values that follow come from patent US20190256822A1, “HEPATIC CELL LINE RESISTANT TO DIMETHYL SULFOXIDE, CELL CULTURE AND USES THEREOF” (Academisch Medisch Centrum, priority 2016, published 2019).

In data set [1] the test system is CAR target gene CYP2B6. Put plainly: CYP induction: CYP2B6 transcript levels after CITCO (CAR inducer). The data set is classed as cell-based, human.
The subject of data set [2] is HepaRG cells. Put plainly: Lactate production after culture with DMSO. It is filed as cell-based, human. On the procedure:
The cultures were washed twice with PBS and then exposed to phenol-red free HepaRG culture medium with 1.5 mM ^15NH4Cl (Sigma), 2.27 mM D-galactose (Sigma), and 2 mM L-lactate (Sigma) without DMSO. Medium samples were taken after 45 min, 8 and 24 hours of incubation. Production or elimination rates were established by calculating the concentration changes of different compounds, as indicated below, in the test media in time, and were corrected for protein content per well.

Data set [3] concerns HepG2 cells. Put plainly: Mitochondrial content (mitochondrial to nuclear DNA ratio) after culture with DMSO. It is filed as cell-based, human. To be noted: HepG2-CAR cultured with DMSO vs HepG2-CAR without DMSO. An excerpt: (§1) To assess the cellular mitochondrial content the inventors determined the mitochondrial/nuclear DNA ratio. Total DNA was isolated with the QIAamp DNA Mini Blood kit (QIAgen) according to manufacturer's instructions.
(§2) For a list of PCR-primers used, see supplementary table 1.

Data set [4] concerns HepaRG cells. The description is as above. The data set is classed as cell-based, human. To be noted: vs cells not cultured in presence of DMSO.
Text: as §1, §2

Data set [5] concerns CAR mRNA. Put plainly: CAR mRNA levels after culture with DMSO. It is filed as cell-based, human. On the procedure:
(§3) RT-qPCR measurements were performed on a Lightcycler 480 (Roche) with Sensifast SYBR Green master mix (Bioline) according to manufacturer's instructions. […] Normalized mRNA levels are expressed as a percentage of the mean mRNA levels of two human liver samples normalized to 18S rRNA. The human liver samples were obtained from two female patients with liver adenoma and no elevated liver damage. […] The samples were taken after obtaining written informed consent and the procedure was approved by the Academic Medical Center's committee on human experimentation (protocol number 03/024).

The test system of data set [6] is HepaRG cells. To be noted: human, 14 days, 1.7 %.
Protocol: For testing, the cells were fully matured during 28 days in 12- or 24-well culture plates. […] For testing the effect of CAR overexpression HepaRG and HepaRG-CAR cultures of similar passage (±1 passage) were compared, between passage 15-19.
(§4) Protein levels of cell cultures were assessed with the Bio-Rad Protein Assay (Bio-Rad, Hercules, Calif.) according to manufacturer's instructions after lysis in 0.2 M NaOH for 1 h at 37° C.
Data set [7] concerns HepG2 cells. To be noted: human, 1.7 %.
Protocol: HepG2 cells were maintained in T75 flasks until 80-90% confluency after which they were propagated in new flasks. The cells were propagated similarly as HepaRG cells. HepG2 cells were seeded at a 1:3-1:4 ratio in 12 or 24 well plates.
as §4
The subject of data set [8] is HepaRG monolayers. To be noted: cited from earlier work.
Data set [9] concerns AHR target gene CYP1A2. To be noted: 24 h, 40 μM. On the procedure: as §3
Transcript levels of CYP genes were compared in cultures with and without induction.

Data set [10] relates to HepaRG+/-CAR monolayer cultures. On the procedure: At the 0 h time point the cells were incubated for 5 s to correct for non-specific binding of the added compounds to the cells and the culture plate. Medium samples of the indicated time points were immediately frozen at −80° C. Prior to HPLC analysis samples were thawed on ice and deproteinized with the addition of 4 volumes of acetonitrile (for prednisolone and theophylline), vacuum evaporated and dissolved in water. Warfarin samples were instead deproteinized with 2 volumes of methanol and spun down for 5 minutes at 20000 g at 4° C. Supernatants were used for HPLC analysis.
Reverse-phase HPLC detection was done as follows. Deproteinized samples (100 μl for prednisolone and theophylline, 30 μl for warfarin) were applied to a Hypersil C18, 3 μm, 15 cm HPLC column (Thermo Scientific). Starting eluent consisted of 6.8 mM ammoniumformate (pH 3.9), followed by several steps of linear gradients to different concentrations of acetonitrile (ACN) (Biosolve, Valkenswaard, The Netherlands). […] Detection of prednisolone was performed at λabs=254 nm, theophylline at λabs=270 nm, warfarin at λexc=310 nm/λem=390 nm. Quantification was done by using calibration curves of prednisolone, theophylline, or warfarin.

`Clc1ccc(-c2nc3sccn3c2/C=N/OCc2ccc(Cl)c(Cl)c2)cc1` [CITCO]: the “fold induction of CYP2B6 transcript” value in [1] (CITCO 1 μM, 24 h, control and modified HepaRG monolayers, independent of DMSO treatment) is 4.2-6.1 ×; in [1] (control HepaRG BALIAD culture without DMSO, CITCO 24 h) it was 6.5 ×; in data set [1] (modified HepaRG BALIAD culture without DMSO, CITCO 24 h), 3.6 ×. For the same compound, the “total CYP2B6 mRNA level after induction, of human liver” value in data set [1] (modified HepaRG BALIAD, CITCO 24 h) is recorded as at most 1023%. Further, in data set [1] (modified HepaRG monolayer, CITCO 24 h), the “total CYP2B6 transcript level after induction, of human liver” value is at most 430%.
As to `C[S+](C)[O-]` [DMSO, dimethyl sulfoxide], the “reduction of lactate production” value is given as 92% in [2] (HepaRG-CAR monolayer cultured with DMSO vs control cells without DMSO) and 57% in [2] (control HepaRG monolayer cultured with DMSO vs control cells without DMSO). For the same compound, the “increase of mitochondrial to nuclear DNA ratio” value in data set [3] was 1.3 ×; in data set [4] (HepaRG-CAR monolayer) it was 2 ×; in [4] (unmodified HepaRG monolayer), 1.8 ×. Further, the “CAR mRNA level, of human liver” value stood at 15% in data set [5] (control HepaRG cells cultured with DMSO (5.3% without)) and 208% in [5] (modified HepaRG cells cultured with DMSO (108% without)). Also, the “reduction of protein content” value in data set [6] was 40%. Further, the “reduction of total protein content” value in data set [6] is 19%; in data set [7], 15%-18. Besides, the “increase of cell leakage” value in data set [8] is 3- to 4 fold. Besides, the “reduction of total cellular protein content” value in [8] is “more than 50%”.
`COc1ccc2[nH]c([S+]([O-])Cc3ncc(C)c(OC)c3C)nc2c1` (centres unmarked) [omeprazole]: in data set [9], the “total CYP1A2 mRNA level after induction, of human liver” value was at most 31% and the “total CYP1A2 transcript level after induction, of human liver” value is at most 23%.
As to `C[C@]12C=CC(=O)C=C1CC[C@@H]1[C@@H]2[C@@H](O)C[C@@]2(C)[C@H]1CC[C@]2(O)C(=O)CO` [prednisolone], the “clearance rate in HepaRG-CAR cultured with DMSO compared to all other conditions” value in data set [10] was “cleared at an increased rate”.
Regarding `Cn1c(=O)c2[nH]cnc2n(C)c1=O` [theophylline, theophylline anhydrous], in data set [10], the clearance entry is listed as “could not reliably observe any clearance”.
`CC(=O)CC(c1ccccc1)c1c(O)c2ccccc2oc1=O` (centres unmarked) [warfarin]: the “clearance rate in HepaRG-CAR cultured with DMSO compared to all other conditions” value in [10] is “cleared at an increased rate”. For the same compound, the “period of linear clearance” value in [10] (human, 1 μM) was in the range of 24 to 48 h.
